For one compound, EC50 results are on record in paper PMC10131537, “Degradation of neurodegenerative disease-associated TDP-43 aggregates and oligomers via a proteolysis-targeting chimera” (Journal of Biomedical Science, 2023).

For the assay, the target named is T1, cereblon (CRBN) (Homo sapiens, UniProt Q96SW2).
T1 construct: GST-tagged human cereblon/DDB1, co-expressed by baculovirus; with DDB1
In words: competitive TR-FRET binding assay versus XL-665-labelled thalidomide.

On to `CN(C)c1ccc(-c2nc3ccc(OCCOCCOCCNc4cccc5c4C(=O)N(C4CCC(=O)NC4=O)C5=O)cc3s2)cc1` (stereo not shown) [compound 2, 4-((2-(2-(2-((2-(4-(Dimethylamino)phenyl)benzo[d]thiazol-6-yl)oxy)ethoxy)ethoxy)ethyl)amino)-2-(2,6-dioxopiperidin-3-yl)isoindoline-1,3-dione], for which a half-maximal response (EC50) required 600 nM.

Usually EC50 stands for the midpoint of the concentration-response curve. The low end stands for an effect from little substance, the high end for a need for much substance.
